Laboratory results: US20250213474A1, “COMPOSITIONS AND METHODS FOR METAL CONTAINING FORMULATIONS CAPABLE OF MODULATING IMMUNE RESPONSE” (The Regents of the University of Michigan, priority 2021, published 2025)

Legend:
[1] = test system: B16F10 cells; assay: B16F10 tumor model, CMP versus other STING-activating formulations; assay type: in vivo, C57BL/6 mice
Description: FIGS. 23A-P: Robust therapeutic effect of CMPCDA in multiple tumor models. (FIGS. 23A-23J) Therapeutic effect of CMPCDA was compared with other CDA formulations and other STING agonists in an established B16F10 tumor model. (FIGS. 23A-23E) Tumor-bearing C57BL/6 mice were treated with CMPCDA, CDA-Zn particle (CZPCDA), CDA liposome), ADU-S100, or diABZI (all 5 μg doses of STING agonists, I.T.) on the indicated time points (FIG. 23A). Shown are (FIG. 23B) the individual tumor growth, (FIG. 23C) representative photos of tumors, (FIG. 23D) average tumor growth and (FIG. 23E) survival. […] Data were analyzed by two-way ANOVA (FIG. 23D, FIG. 23I, FIG. 23P) with Bonferroni multiple comparisons post-test. Survival of (FIG. 23E, FIG. 23J, FIG. 23P) was analyzed by Kaplan-Meier survival analysis with log-rank (Mantel-Cox) test. *p and #p in (FIG. 23P) denote statistical significance relative to the untreated and CDA groups, respectively.
All animals were cared for following federal, state, and local guidelines. […] Tumor size and survival were monitored every 2-4 days. Tumor size was calculated based on equation: volume=length×width^2×0.5. […] At indicated time points, the cytokine levels in serum were measured by ELISA assay in the Cancer Center Immunology Core of the University of Michigan. The amount of tumor antigen-specific T cells among PBMC were analyzed using the IFN-γ ELISPOT assay. […]

[2] = test system: VX2 squamous cell carcinoma; assay: Rabbit VX2 squamous cell carcinoma model; assay type: in vivo, New Zealand White rabbits; details: IV on W0 and W1; CMP-14:0 PA 0.5 mg, diABZi 1.5 mg; versus non-treated rabbits
Description: FIGS. 32A-E: CMP-14:0 PA exerts robust efficacy in rabbit VX2 squamous cell carcinoma model. (FIG. 32A) VX2 tumor tissues were cut into pieces and implanted within the muscle of the both hindlimbs on W-3.5. Rabbits were treated IV with 0.5 mg CMP-14:0 PA or 1.5 mg diABZi on W0 and W1. Shown are (FIG. 32B) total weight of primary tumors dissected from the muscle of the hindlimbs. (FIG. 32C) total volume of the primary tumor dissected from the muscle of the hindlimbs. (FIG. 32D) Measured tumor area ratio based on H&E staining slides of lung sections. (FIG. 32E) Representative images of the lungs.
New Zealand White rabbits were used for this study. All rabbits were housed individually in cages under constant 21° C. temperature and 12-h light/dark cycles. All animals were cared for following federal, state, and local guidelines. All animal experimental procedures performed were in accordance with and approved by the Institutional Animal Care & Use Committee (IACUC) at the University of Michigan, Ann Arbor and complied with the National Institutes of Health (NIH) Guidelines for the care and use of laboratory animals. For establishing VX2 squamous cell carcinoma in rabbits, 4 mm^3 fresh tumor tissues were cut into small pieces and resuspended in 1 mL PBS for intramuscular injections within the hindlimbs. Both hindlimbs were implanted with the tumor tissue suspension. […]

[3] = Safety of CMP-14:0 PA in VX2 tumor bearing rabbits (body weight, AST, ALT); assay type: in vivo, New Zealand White rabbits; details: 1.5 mg IV on W0 and W1
Description: FIGS. 31A-31C: CMP-14:0 PA is safe in rabbits. (FIG. 31A) VX2 tumor tissues were cut into pieces and implanted within the muscle of the both hindlimbs on W-3.5. […] (FIG. 31B) Serum was collected on W2 for measurement of AST and ALT levels as indicators of liver function. (FIG. 31C) Body weight changes in VX2 tumor bearing rabbits were monitored over the two cycles of treatment.
New Zealand White rabbits were used for this study. All rabbits were housed individually in cages under constant 21° C. temperature and 12-h light/dark cycles. All animals were cared for following federal, state, and local guidelines. All animal experimental procedures performed were in accordance with and approved by the Institutional Animal Care & Use Committee (IACUC) at the University of Michigan, Ann Arbor and complied with the National Institutes of Health (NIH) Guidelines for the care and use of laboratory animals. For establishing VX2 squamous cell carcinoma in rabbits, 4 mm^3 fresh tumor tissues were cut into small pieces and resuspended in 1 mL PBS for intramuscular injections within the hindlimbs. Both hindlimbs were implanted with the tumor tissue suspension. […] In the antitumor efficacy study, two doses of CMP-14:0 PA and diABZi were given with one week interval and the rabbits were euthanized 1 week after the last dose for primary tumors and lung metastasis analysis. […]

Substance: diABZI
- anti-tumor effect after I.T. therapy ([1]; 5 μg doses of STING agonists, I.T.): comparable anti-tumor responses
- anti-tumor effect after I.V. therapy ([1]; 20 μg doses, I.V.): only minor anti-tumor effects
- weight and volume of primary tumors in the hindlimbs [2]: did not decrease the weight or volume of primary tumors
- rabbits with elevated level of AST and ALT [3]: 1 out of 3
